Data as given in US20070116736A1, “Local vascular delivery of PI3 kinase inhibitors alone or in combination with sirolimus to prevent restinosis following vascular injury” (priority 2005, published 2007).
Blank lines part the entries; values can stand above or below the compound they belong to.

What was measured:
[1] = drug concentration in liquid formulations by liquid chromatography / HPLC assay; assay type: physicochemical
[2] = porcine drug elution PK study of dual drug eluting coating; assay type: in vivo; settings: after eight (8) days of implantation, pig coronary arteries; single layer coating of FIG. 83
Excerpt: Another critical parameter for the performance of the thrombus resistance of a device coated with cilostazol is the duration of the drug release from the coating. This is of particular significance in the two weeks after device implantation. In the porcine drug elution PK studies of the dual drug eluting coating, both cilostazol and sirolius were slowly released from the coating, resulting in a sustained drug release profile. The purpose of the porcine PK study is to assess the local pharmacokinetics of a drug eluting stent at a given implantation time. Normally three stents are implanted in three different coronary arteries in a pig for a given time point and then retrieved for total drug recovery analysis. The stents are retrieved at predetermined time points; namely, 1, 3 and 8 days. The stents are extracted and the total amount of drug remaining on the stents is determined by analysis utilizing HPLC (high performance liquid chromatography) for total drug amount. The difference between the original amount of drug on the stent and the amount of drug retrieved at a given time represents the amount of drug released in that period. The continuous release of drug into surrounding arterial tissue is what prevents the neointimal growth and restenosis in the coronary artery. A normal plot represents the percentage of total drug released (%, y-axis) vs. time of implantation (day, x-axis). […]

[3] = tested on: human coronary artery smooth muscle cells; assay: anti-proliferative activity in non-synchronized cultured human coronary artery smooth muscle cells stimulated with two percent fetal bovine serum; assay type: cell-based; settings: for effect of addition of the agent on the anti-proliferative activity of rapamycin: mycophenolic acid zero to one thousand nanomolar, cladribine zero to nine hundred nanomolar
Excerpt: The multiple curves represent various concentrations of mycophenolic acid ranging from zero to one thousand nanomolar concentrations.
The multiple curves represent various concentrations of cladribine ranging from zero to nine hundred nanomolar concentrations.

[4] = tested on: human coronary artery smooth muscle cells; settings: synchronized cells, two percent fetal bovine serum; for effect of addition of the agent on the percent inhibition of rapamycin: topotecan zero to three hundred nanomolar, etoposide zero to eight hundred nanomolar, Panzem zero to 100 micromolar
[5] = tested on: human coronary artery smooth muscle cell; assay: MTS cytotoxicity assay; assay type: cell-based; settings: concentrations up to 30,000.00 nanomolar
Excerpt: Typically, a control is utilized to determine baseline toxicity.

cell viability = cell viability assay; assay type: cell-based
[6] = in vitro release of sirolimus and cilostazol from stent coating; assay type: physicochemical; settings: single layer coating of FIG. 83
tumor cell lines = tumor cell lines (Woo et al. 2002); cited from earlier work
[7] = tested on: human coronary artery smooth muscle cell; assay: in vitro cell culture study, coronary artery smooth muscle cell proliferation (trichostatin A); assay type: cell-based
Excerpt: FIG. 51 is a graph of the inhibition of coronary artery smooth muscle cells by trichostatin A in a cell culture study.

[8] = tested on: human smooth muscle cells; assay: Cladribine Example, PDGF-stimulated cell proliferation (cell count), smooth muscle cells; assay type: cell-based; settings: from IC50 values
Procedure: To assess the ability of cladribine to prevent cell proliferation, human smooth muscle or endothelial cells (Clonetics, Walkersville, Md.) were seeded at a density of 2000 cells/cm^2 (approximately 3600 cells/well) into each well of 12-well plates and cultured with 1.5 ml of growth medium containing five percent fetal calf serum (FCS). After twenty-four hours, the growth medium was changed and fresh medium containing 10 ng/ml platelet-derived growth factor AB (PDGF AB; LIFE Technologies), as well as various concentrations of cladribine (0.001-10,000 nM) were added with triplicate wells. Medium was replaced with fresh cladribine-containing medium after three days. On day six, cells were detached by trypsinization to yield a cell suspension, lightly centrifuged to pellet and then counted manually using a Neubauer hemocytometer system. Cell viability was assessed by trypan blue exclusion.

- concentration in formulation relative to solubility of sirolimus in water ([1]; 4 mg/ml PEG 200 formulation): four hundred to about one thousand
- drug remaining in the drug coating [2]: ~80%
SMILES: CO[C@H]1C[C@@H]2CC[C@@H](C)[C@@](O)(O2)C(=O)C(=O)N2CCCC[C@H]2C(=O)O[C@H]([C@H](C)C[C@@H]2CC[C@@H](O)[C@H](OC)C2)CC(=O)[C@H](C)/C=C(\C)[C@@H](O)[C@@H](OC)C(=O)[C@H](C)C[C@H](C)/C=C/C=C/C=C/1C [rapamycin]

SMILES: COc1c(C)c2c(c(O)c1C/C=C(\C)CCC(=O)O)C(=O)OC2 [mycophenolic acid]
- effect of addition of the agent on the anti-proliferative activity of rapamycin [3]: potentiates the anti-proliferative activity of rapamycin

SMILES: COc1cc2c(cc1O)CC[C@@H]1[C@@H]2CC[C@]2(C)[C@@H](O)CC[C@@H]12 [Panzem®, 2-methoxyestradiol]
- inhibition of human coronary artery smooth muscle cell proliferation in vitro [4]: extremely effective inhibitor
- effect of addition of the agent on the percent inhibition of rapamycin [4]: increases the percent of inhibition of rapamycin alone
- human coronary artery smooth muscle cell survival (MTS assay) [5]: do not reduce human coronary artery smooth muscle cell survival

SMILES: CC[C@@]1(O)C(=O)OCc2c1cc1n(c2=O)Cc2cc3c(CN(C)C)c(O)ccc3nc2-1 [topotecan]
- cytotoxicity in cell viability assay (cell viability; at concentrations up to one micromolar): non-cytotoxic
- effect of addition of the agent on the percent inhibition of rapamycin [4]: increases the percent inhibition of rapamycin alone

SMILES: O=C1CCc2cc(OCCCCc3nnnn3C3CCCCC3)ccc2N1 [cilostazol, 6[4-(1-cyclohexyl-1H-tetrazol-5-yl)-butoxy]-3,4-dihydro-2-(1H)-quinolinone]
- drug remaining in the drug coating [2]: ~80%
- in vitro release from coating [6]: ~35%

SMILES: COc1cc([C@@H]2c3cc4c(cc3[C@@H](O[C@@H]3O[C@@H]5CO[C@@H](C)O[C@H]5[C@H](O)[C@H]3O)[C@H]3COC(=O)[C@H]23)OCO4)cc(OC)c1O [etoposide]
- cytotoxicity in cell viability assay (cell viability; at concentrations up to ten micromolar): non-cytotoxic
- effect of addition of the agent on the percent inhibition of rapamycin [4]: increases the percent inhibition of rapamycin alone

- concentration of CCI-779 in the final solution (HPLC assay) ([1]; Vitamin E TPGS, water, ethanol less than two percent): 15000 µg/mL
SMILES: CO[C@H]1C[C@@H]2CC[C@@H](C)[C@@](O)(O2)C(=O)C(=O)N2CCCC[C@H]2C(=O)O[C@H]([C@H](C)C[C@@H]2CC[C@@H](OC(=O)C(C)(CO)CO)[C@H](OC)C2)CC(=O)[C@H](C)/C=C(\C)[C@@H](O)[C@@H](OC)C(=O)[C@H](C)C[C@H](C)/C=C/C=C/C=C/1C [CCI-779]

SMILES: CC(/C=C/C(=O)NO)=C\[C@@H](C)C(=O)c1ccc(N(C)C)cc1 [trichostatin A]
- anti-proliferative IC50 (tumor cell lines): low nM range
- IC50 ([7]; human coronary artery smooth muscle cell proliferation, read-out: anti-proliferative IC50): ~6 nM
- inhibition of human coronary artery smooth muscle cell proliferation ([7]; in vitro cell culture): completely inhibit

SMILES: Nc1nc(Cl)nc2c1ncn2[C@H]1C[C@H](O)[C@@H](CO)O1 [cladribine, 2-chlorodeoxyadenosine]
- potency as inhibitor of smooth muscle cells relative to endothelial cells [8]: approximately twice
- inhibition of human coronary artery smooth muscle cell proliferation [3]: completely inhibits
- effect of addition of the agent on the anti-proliferative activity of rapamycin [3]: increases the percent inhibition of rapamycin alone
